The subject of experiment [1] is axenic Leishmania tarentolae amastigotes (axLtA). Put plainly: MTT viability assay in axenic Leishmania tarentolae amastigotes. Format: cell-based. As to the method:
An aliquot of the original LtP culture broth that was equivalent to 108 × 10^6 cells was centrifuged at 2000× g for 10 min (Sorvall RC26 Plus, rotor: SH-3000, Thermo Fisher Scientific, Waltham, MA, USA). The resulting supernatant was discarded, and the cell pellet was resuspended in 10 mL of Schneider’s medium (adjusted to a pH of 4.5 using HCl; containing 50% FCS, 25,000 U/L penicillin, and 25 mg/L streptomycin). The cell suspension was transferred and cultured in a 50 mL TubeSpin bioreactor at 32 °C. Every 3–4 days, the cells were passaged. Therefore, the cell broth was centrifuged at 2000× g for 10 min, and the supernatant was discarded. The cells were resuspended in fresh medium. During the first 14 days, after the culture was started, the cells transformed from the promastigote to the axenic amastigote state (axLtA). Subsequent to this initial period, the axenic amastigotes were passaged every 3–4 days. To determine cell density of the broth, an aliquot of the suspension, usually 1 mL, was transferred into an Eppendorf tube. The cells were then diluted 1:2 up to 1:40 using PBS, depending on the cell density of the broth. An aliquot of 20 µL of this dilution was further diluted 1:2 with a 2% formaldehyde solution (in PBS). Of this final suspension, 10 µL were transferred to each counting chamber of a standard Neubauer chamber (VWR, Wien, Austria). The cells were incubated for 5 min at 25 °C to let them sediment. Photographs of the counting chambers were taken using a light microscope (Lacerta LIS-5 microscope, Lacerta GmbH, Vienna, Austria) with an attached camera. The photos were obtained at a magnification of 100×. Four photos of every counting chamber were taken, resulting in a total of eight photos. The pictures were then analyzed with the Fiji ImageJ (2.0.0) software (Wayne Rasband, National Institutes of Health (NIH), Bethesda, Maryland (MD), USA). The results were averaged giving the final cell number of the culture broth.
Owing to the acidic conditions needed for axLtA (pH 4.5), viability assays with axLtA were carried out using MTT instead of resazurin that is unstable in an acidic environment. Cell suspensions (200 µL) of axLtA (6 × 10^6 parasites/mL) in Schneider’s medium (pH = 4.5), containing 25,000 U/L penicillin, 25 mg/L streptomycin, and 50% FCS were prepared and distributed in 96-well round-bottom microplates. Then compounds were added (leading to a final vehicle concentration of max. 2% DMSO in the wells). Subsequently, five 1:5 serial dilution steps were performed. Control rows were loaded with 200 µL of either Schneider’s medium or axLtA suspension. After incubation at 32 °C for 48 h, 20 µL of MTT solution (in PBS) were added to each well (1 mM final concentration) and incubated for additional 4 h. Then plates were centrifuged at 400× g for 5 min (Hettich Rotina 420, Tuttlingen, Germany), and the supernatant was discarded. DMSO (100 µL) was added to each well and incubated at 32 °C for 10 min. Then the OD at 570 nm and 630 nm was determined using a plate reader (Perkin Elmer Enspire, Rodgau, Germany).
Calculations were carried out using Microsoft Excel (Microsoft). The graphs were created using Origin 6.1 (OriginLab Corporation, Northampton, MA, USA). The half maximal inhibitory concentrations (IC50) were determined from non-linear concentration–response curves using a four-parameter logistic model and expressed as the mean ± standard deviation (SD). Statistically significant differences of p <0.05 were identified using Students t-test.

The next experiment relates to LtP. As to the kind of experiment: EPR (CMH oxidation): superoxide formation in LtP. It counts as cell-based, Leishmania tarentolae. The settings on record: 20 µM AA or 100 µM other compounds, 500 × 10^6 LtP/mL, 400 µM CMH, DFO, DTPA, 5 min, 25 °C. As to the method:
To measure superoxide radical (O2^•−) formation induced by AcEPs in LtP, EPR spectroscopy was used. An aliquot of the cell broth was transferred into an Eppendorf tube that was centrifuged (Hettich Universal 16, 20 °C, 2000× g, 10 min). The supernatant was discarded, the cell pellet was resuspended in PBS and centrifuged again. After removal of the supernatant, the cell pellet was resuspended in a mixture of PBS, 15 mM glucose (PBS/Glu), DFO (100 µM), and DTPA (25 µM). […] The cell suspension was aliquoted. CMH was added as detection agent leading to a final concentration of 400 µM. After 5 min of incubation at 25 °C, the respective substance was added resulting in final concentrations of 20 µM antimycin A (AA) or 100 µM of AcEP1117, AcEP1118, AcEP1129, AcEP1130, Ac, and AQ. Samples containing LtP and CMH were used as negative control. Samples containing PBS/Glu and CMH were used as negative control as well. After 5 min of incubation at 25 °C with the respective substance, aliquots of 17 µL of the cell suspensions were aspirated into a PTFE tube (outer diameter 0.7 mm). The tube was transferred into the MD5 resonator of the EPR spectrometer. Immediately, the measurement was started using the following parameters: microwave frequency 9.684 GHz; microwave power 20 mW, modulation frequency 100 kHz; modulation amplitude 1 G; time constant 0.82 s; center field 3449 G; scan rate 14 G/min; sweep width 100 G; scan time 419 s; attenuation 2.52 × 10^4; and scans 5.

Setting [2] is: Leishmania tarentolae, 48 h, pH 4.5, MTT assay, endpoint at 48 h, 6 × 10^6 axLtA/mL, pH 4.5, read-out: IC50 (µM) Mean ± SD axLtA.

Like-named read-outs stand apart in the source and are kept apart here.

Consider `O=C1c2ccccc2C(=O)c2ccccc21` [AQ, anthraquinone, reference compound], for which the IC50 in experiment [1] (setting [2]) is 369 ± 9.81 µM. The “CMH oxidation (superoxide radical formation) in LtP” value (“CMH oxidation” for short) with LtP was “did not trigger additional CMH oxidation in LtP”.

For `c1ccc2cc3ccccc3cc2c1` [Ac, anthracene], the IC50 in experiment [1] (Leishmania tarentolae, 48 h, pH 4.5, read-out: IC50 (µM) Mean ± SD axLtA, MTT assay, endpoint at 48 h, 6 × 10^6 axLtA/mL, pH 4.5) is > 400 µM. Moreover, the “CMH oxidation” value with LtP is reported as “did not trigger additional CMH oxidation in LtP”.

In the case of `c1ccc2c(c1)C1OOC2c2ccccc21` [AcEP1117, 9,10-dihydro-9,10-epidioxidoanthracene], in experiment [1] (setting [2]), the IC50 stood at 56.4 ± 15 µM. Also, in the experiment with LtP, the “CMH oxidation” value is recorded as “failed to cause any enhanced oxidation of CMH”.

With `CC12OOC(C)(c3ccccc31)c1ccccc12` [AcEP1118, 9,10-dimethyl-9,10-dihydro-9,10-epidioxidoanthracene], the IC50 in experiment [1] (setting [2]) turned out to be 6.43 ± 0.4 µM. The “CMH oxidation” value in the experiment on LtP is listed as “failed to cause any enhanced oxidation of CMH”.

Regarding `CC12OOC(c3ccccc31)c1ccccc12` [AcEP1129, 9-methyl-9,10-dihydro-9,10-epidioxidoanthracene], in experiment [1] (setting [2]), the IC50 worked out at 3.29 ± 0.13 µM. Further, in the experiment with LtP, the “CMH oxidation” value is given as “an increased CMH oxidation rate occurred”.

`CCc1ccc2c(c1)C1OOC2c2ccccc21` (centres unmarked) [AcEP1130, 2-ethyl-9,10-dihydro-9,10-epidioxidoanthracene]: in experiment [1] (setting [2]), the IC50 is 15.3 ± 0.31 µM. The “CMH oxidation” value in the experiment with LtP is “an increased CMH oxidation rate occurred”.

Turning to `N=C(N)c1ccc(OCCCCCOc2ccc(C(=N)N)cc2)cc1` [Pen, pentamidine, reference compound], the IC50 is < 1 µM in experiment [1] (setting [2]) and 0.67 ± 0.31 µM in experiment [1] (MTT assay, endpoint at 48 h, 6 × 10^6 axLtA/mL, pH 4.5, read-out: IC50 (µM) Mean ± SD axLtA).

Values taken from paper PMC6100073, “Activation of Anthracene Endoperoxides in Leishmania and Impairment of Mitochondrial Functions” (Molecules : A Journal of Synthetic Chemistry and Natural …, 2018).
